Measurements reported in publication PMC8536644, “Enigmatic mechanism of the N-vinylpyrrolidone hepatocarcinogenicity in the rat” (Archives of Toxicology, 2021).
Several values for one entry are separate records, joined by “and”; a condition that tells them apart may be missing. Identical values can stand only once.

What was measured:
[1] = system: polychromatic erythrocytes of rat bone marrow; test: Micronucleus test in rat bone marrow (OECD 474); details: for MN/ 1000 PCE Mean ± SD / MN/ 1000 PCE Range / PCE/1000 Erythrozyten Mean ± SD / PCE/NCE quotient (%): 200 mg/kg body weight oral
Protocol: 13-mm filter disks with a pore size of 8 µm were placed on the bottom of 5-mL plastic syringes. Approximately 500 mg of a mixture consisting of equal parts microcrystalline cellulose (Sigmacell®, Typ 50) and alpha-cellulose fibers was added up to the 2-mL mark.
Bone marrow preparation was performed according to published methods (Romagna and Staniforth [1989]; Salamone et al. [1980]). The soft tissue was removed from the femora and the epiphyses were cut off. The bone marrow was rinsed off the diaphyses with approximately 3 mL 37 °C-warm fetal calf serum (FCS) (Biochrom, Berlin, Germany) per femur, placed on the above-described cellulose column and eluted with 3 mL of Hank's Balanced Salt Solution (HBSS) (Biochrom, Berlin, Germany) (with Ca^2+ und Mg^2+). The eluate was centrifuged at 300 g for 5 min and the pellet was suspended in […] FCS. From this suspension three portions per femur were individually placed on slides, air-dried and then stained for 4 min in May-Grunwald solution 1 (Merck, Darmstadt, Germany), followed by 4 min in May–Grunwald solution 2 (May-Grunwald solution 1 diluted 1:1 with aqua bidest.), rinsed in aqua bidest and then stained with Giemsa solution (7.5% dilution derived from Giemsa obtained from Merck, Darmstadt, Germany) for 15 min. Subsequently, the slides were washed twice with aqua bidest, then dried, cleared in xylene and covered with Corbit-Balsam (I. Hecht, Kiel-Hasse, Germany).
2000 polychromatic erythrocytes (PCE) per animal (1000 per slide) were evaluated at 1000-fold magnification under immersion oil for the presence/absence of large and small micronuclei as well as the proportion of PCE among the total erythrocytes. Statistical significance of differences between treated versus untreated groups was evaluated by the one-sided Wilcoxon test (using the program MUKERN). The result is regarded as positive when the following criteria are fulfilled: 1.
2000 PCEs were analyzed for micronuclei per animal.

[2] = system: rat liver cells; test: Comet assay, conventional (no FPG), liver; details: for Increase of the TI vs vehicle control: p ≤ 0.01; for Hedgehogs/100 cells (mean ± SD) / TI (%) (mean ± SD) / TI (%), mean of medians from 2 slides: liver, 200 mg/kg bw oral, once; for TI (%), mean of medians from 2 slides: individual animals
Protocol: Animals were anesthetized by 3.5% isoflurane (approximately 3 min, evaporator Dräger Vapor 19.3) and then killed by cervical dislocation. The liver was removed and its left lateral lobe used for the Comet assay. The remainder of the liver was washed in saline and then in two aliquots shock frozen in liquid nitrogen and stored at − 80 °C for later examinations. Subsequently the lung was removed from the dead animal. Its left lobe was used for the Comet assay and the remainder treated as described above for the liver. Thereafter the femora were removed for the preparation of the bone marrow.
The Comet assay was performed under alkaline conditions according to the principles described by Singh et al. ([1988]) and Tice et al. ([2000]).
Liver and lung cells were obtained essentially as described by Hartmann et al. ([2004]) and by the Japanese Center for the Validation of Alternative Methods (JaCVAM [2009]). Single cells were obtained within 1 h after killing of the animals in order to minimize DNA damage during the preparation.
The organ parts (see above) were washed in mincing buffer (50 mM EDTA in HBSS [without Ca^2+ and Mg^2+] pH 7.5: DMSO 9:1 (v/v), the latter added shortly before use, stored at 4 °C), cut into 1 to 2-mm pieces in ice-cold mincing buffer and transferred to a cell sieve with 70-µm pores. The viability of the cell suspension was evaluated by the Trypan Blue Assay (Strober [2001]).
100 µL of the obtained cell suspension was mixed at 37 °C with 900 µL Low Melting Agarose (LMA) (0.7% agarose in phosphate-buffered saline [PBS] [Biochrom, Berlin, Germany] without Ca^2+ and Mg^2+). 100 µL of this mixture was transferred to a slide, which had been coated with Normal Melting Agarose (NMA) (0.6% agarose in PBS without Ca^2+ and Mg^2+). The slides were protected with a cover slip and the agarose was hardened at approximately 4 °C. The cover slips were then removed and the slides put over night at 4 °C into lysis buffer (2.5 M NaCl, 125 mM NaOH, 127 mM EDTA, 10 mM Tris/NaOH, pH 10; 1% Triton X-100 and 10% DMSO (v/v), the latter two added before use) in order to lyse the cell membrane, nuclear membrane and remove the histone.
The then following procedures were performed in a shaded room to minimize UV-mediated DNA damage during the procedures.
Remaining lysis buffer or FPG buffer was removed by immersing/washing the slides in PBS (without Ca^2+ and Mg^2+).
The slides were then placed into the electrophoresis chamber, which was cooled and protected from light. Slides were covered with electrophoresis buffer (0.3 M NaOH, 1 mM EDTA, pH > 13) carefully avoiding air bubbles. The DNA was allowed to unwind (20 min). Thereafter the electrophoresis was started (25 V, 300 mA, […], 30 min). The slides were then washed (2 times 5 min) in neutralization buffer (0.4 M Tris/HCl, pH 7.5), dehydrated and fixed in 100% ethanol (1 min), dried at room temperature overnight and stored at room temperature protected from dust.
Quantitative evaluation of the Comet assays was performed by fluorescence microscopy after DNA staining with ethidium bromide.

[3] = Trypan Blue viability of the single cell suspension, liver; format: in vivo, rat; details: Wistar, rat, in vivo, po, 200 mg/kg
[4] = system: rat liver cells; test: as above; format: in vivo; details: Wistar, rat, in vivo, po, 200 mg/kg, 24 h

Compound: CCOS(C)(=O)=O [EMS, ethyl methanesulfonate, reference compound]
- MN/ 1000 PCE Mean ± SD ([1]; female): 11.8 ± 12.3 MN/ 1000 PCE
- MN/ 1000 PCE Range ([1]; female): 9.0–14.5 MN/ 1000 PCE
- PCE/1000 Erythrozyten Mean ± SD ([1]; female): 563 ± 29 PCE/1000 Erythrozyten
- PCE/NCE quotient (%) ([1]; female): 89%
- MN/ 1000 PCE Mean ± SD ([1]; male): 14.5 ± 6.0 MN/ 1000 PCE
- MN/ 1000 PCE Range ([1]; male): 3.0–20.0 MN/ 1000 PCE
- PCE/1000 Erythrozyten Mean ± SD ([1]; male): 616 ± 50 PCE/1000 Erythrozyten
- PCE/NCE quotient (%) ([1]; male): 101%
- Micronuclei in PCE ([1]; 200 mg/kg body weight, independent of gender): 13.2 ± 4.6 ‰
- Micronuclei in PCE ([1]; female, Wistar Crl:WI (Han), rat, in vivo, 24 h): 11.8 ± 2.3 ‰
- Micronuclei in PCE ([1]; male, Wistar Crl:WI (Han), rat, in vivo, 24 h): 14.5 ± 6.0 ‰
- Tail intensity, liver, positive controls of the present study ([2]; 200 mg/kg body weight): 17–19%
- Increase of the TI vs vehicle control ([2]; liver cells, female, no FPG, 200 mg/kg): 28 fold
- Increase of the TI vs vehicle control ([2]; liver cells, male, no FPG, 200 mg/kg): 27 fold
- Hedgehogs per 100 cells, averaged for both genders ([2]; liver cells, no FPG, 200 mg/kg): 7.5 per 100 cells
- Hedgehogs/100 cells (mean ± SD) ([2]; female, no FPG): 7 ± 4 /100 cells
- TI (%) (mean ± SD) ([2]; female, no FPG): 16.3 ± 4.49%
- TI (%), mean of medians from 2 slides ([2]; female, no FPG, 200 mg/kg): 9.1% and 13.6% and 17.5% and 22.4% and 17.8% and 17.3%
- Hedgehogs/100 cells (mean ± SD) ([2]; male, no FPG): 8 ± 2 /100 cells
- TI (%) (mean ± SD) ([2]; male, no FPG): 18.6 ± 5.97%
- TI (%), mean of medians from 2 slides ([2]; male, no FPG, 200 mg/kg): 18.9% and 17.5% and 29.0% and 10.6% and 19.3% and 16.4%
- viability at 24 h ([3]; female, Individual viability (%)): 99%
- viability at 24 h ([3]; female, Viability (%) (mean ± SD)): 96 ± 2%
- viability at 24 h ([3]; male, Individual viability (%)): 91%
- viability at 24 h ([3]; male, Viability (%) (mean ± SD)): 95 ± 3%
- Individual viability (%) ([4]; female): 97%
- Individual viability (%) ([4]; male): 94%
